Results on 25 compounds are retold here after ChEMBL document CHEMBL5352434, “Design, synthesis, and biological evaluation of ocotillol derivatives fused with 2-aminothiazole via A-ring as modulators of P-glycoprotein-mediated multidrug resistance” (Eur J Med Chem, 2022).

Assay type in all cases: functional
Settings in all cases: read-out: Survival

The nature of test [1]: Cytotoxicity against multi-drug resistance human KBV cells assessed as cell survival rate at 5 uM in presence of 100 nM Paclitaxel incubated for 72 hrs by MTT assay.
Test [2] in a line: Cytotoxicity against multi-drug resistance human KBV cells assessed as cell survival rate at 10 uM in presence of 100 nM Paclitaxel incubated for 72 hrs by MTT assay. In general terms: Tetrazolium dyes change colour on reduction, which living cells bring about.
Test [3] is described as follows: Cytotoxicity against multi-drug resistance human KBV cells assessed as cell survival rate at 5 uM incubated for 72 hrs by MTT assay.
Test [4] can be described thus: Cytotoxicity against multi-drug resistance human KBV cells assessed as cell survival rate at 10 uM incubated for 72 hrs by MTT assay.

Regarding `CC(C)(O)[C@@H]1CC[C@@](C)([C@H]2CC[C@]3(C)[C@@H]2[C@H](O)C[C@@H]2[C@@]4(C)Cc5sc(NC(=O)CCCCCN)nc5C(C)(C)[C@@H]4CC[C@]23C)O1`, the viability at 5 µM was 72.2% in test [1] and 93.5% in test [3]. Further, the viability at 10 µM in test [2] was found to be 67.2%; in test [4], 72.2%.
In the case of `CC(C)(O)[C@@H]1CC[C@@](C)([C@H]2CC[C@]3(C)[C@@H]2[C@H](O)C[C@@H]2[C@@]4(C)Cc5sc(NC(=O)[C@H](N)Cc6c[nH]c7ccccc67)nc5C(C)(C)[C@@H]4CC[C@]23C)O1`, the viability at 5 µM in test [1] was found to be 94.4%; in test [3], 92.8%. Further, the viability at 10 µM in test [2] was determined as 76.3%; in test [4], 95.7%.
In the same order, the values of `CC(C)(O)[C@@H]1CC[C@@](C)([C@H]2CC[C@]3(C)[C@@H]2[C@H](O)C[C@@H]2[C@@]4(C)Cc5sc(NC(=O)CCCN)nc5C(C)(C)[C@@H]4CC[C@]23C)O1` are 90%, 106%, 57% and 67.2%.
In the same order, the values of `CC(C)(O)[C@@H]1CC[C@@](C)([C@H]2CC[C@]3(C)[C@@H]2[C@H](O)C[C@@H]2[C@@]4(C)Cc5sc(NC(=O)CCCCCCCCCCN)nc5C(C)(C)[C@@H]4CC[C@]23C)O1` are 18.1%, 18.4%, 16.4% and 17.5%.
In the case of `CC(C)(O)[C@@H]1CC[C@@](C)([C@H]2CC[C@]3(C)[C@@H]2[C@H](O)C[C@@H]2[C@@]4(C)Cc5sc(NC(=O)[C@H](N)Cc6ccccc6)nc5C(C)(C)[C@@H]4CC[C@]23C)O1`, the results for the viability at 5 µM in test [1] and in test [3] were 101% and 103%, respectively. The viability at 10 µM in test [2] was 50.2%; in test [4], 96%.
For the compound `CC(C)(O)[C@H]1CC[C@@](C)([C@H]2CC[C@]3(C)[C@@H]2[C@H](O)C[C@@H]2[C@@]4(C)Cc5sc(NC(=O)[C@H]6CCCN6)nc5C(C)(C)[C@@H]4CC[C@]23C)O1`, the viability at 5 µM in test [1] was 39.5%; in test [3] it was 84.1%. Also, the figures for the viability at 10 µM in test [2] and in test [4] were 22.9% and 59.5%, respectively.
As to `CC(C)C[C@H](N)C(=O)Nc1nc2c(s1)C[C@]1(C)[C@H]3C[C@@H](O)[C@@H]4[C@@H]([C@]5(C)CC[C@@H](C(C)(C)O)O5)CC[C@@]4(C)[C@]3(C)CC[C@H]1C2(C)C`, the viability at 5 µM in test [1] was determined as 71.8%; in test [3], 89.3%. Moreover, the viability at 10 µM in test [2] was 50.9%; in test [4] it was 98.1%.
In the same order, the values of `C[C@H](N)C(=O)Nc1nc2c(s1)C[C@]1(C)[C@H]3C[C@@H](O)[C@@H]4[C@@H]([C@]5(C)CC[C@H](C(C)(C)O)O5)CC[C@@]4(C)[C@]3(C)CC[C@H]1C2(C)C` are 67.3%, 91.4%, 41% and 103%.
Take `CC(C)(O)[C@H]1CC[C@@](C)([C@H]2CC[C@]3(C)[C@H]2[C@H](O)C[C@@H]2[C@@]4(C)Cc5sc(NC(=O)[C@H](N)Cc6c[nH]c7ccccc67)nc5C(C)(C)[C@@H]4CC[C@]23C)O1`: the viability at 5 µM turned out to be 69.5% in test [1] and 91.9% in test [3]. Moreover, the figures for the viability at 10 µM in test [2] and in test [4] were 55.6% and 93.9%, respectively.
In the case of `CC(C)(O)[C@H]1CC[C@@](C)([C@H]2CC[C@]3(C)[C@@H]2[C@H](O)C[C@@H]2[C@@]4(C)Cc5sc(NC(=O)[C@H](N)Cc6ccccc6)nc5C(C)(C)[C@@H]4CC[C@]23C)O1`, the viability at 5 µM amounted to 54.1% in test [1] and 100% in test [3]. The values for the viability at 10 µM in test [2] and in test [4] were 39.1% and 101%, respectively.
Take `CC(C)(O)[C@@H]1CC[C@@](C)([C@H]2CC[C@]3(C)[C@@H]2[C@H](O)C[C@@H]2[C@@]4(C)Cc5sc(NC(=O)CCCCCCCN)nc5C(C)(C)[C@@H]4CC[C@]23C)O1`: the viability at 5 µM in test [1] came to 29%; in test [3], 44.7%. Moreover, the viability at 10 µM in test [2] was determined as 17.3%; in test [4] it was 16.5%.
In the same order, the values of `CC(C)[C@H](N)C(=O)Nc1nc2c(s1)C[C@]1(C)[C@H]3C[C@@H](O)[C@H]4[C@@H]([C@]5(C)CC[C@H](C(C)(C)O)O5)CC[C@@]4(C)[C@]3(C)CC[C@H]1C2(C)C` are 91.6%, 95.2%, 54.2% and 92.7%.
As for `CC(C)(O)[C@@H]1CC[C@@](C)([C@H]2CC[C@]3(C)[C@@H]2[C@H](O)C[C@@H]2[C@@]4(C)Cc5sc(NC(=O)[C@H]6CCCN6)nc5C(C)(C)[C@@H]4CC[C@]23C)O1`, the viability at 5 µM in test [1] worked out at 69.8%; in test [3] it was 94.6%. In addition, the viability at 10 µM is 48.1% in test [2] and 93.3% in test [4].
Take `CC(C)C[C@H](N)C(=O)Nc1nc2c(s1)C[C@]1(C)[C@H]3C[C@@H](O)[C@H]4[C@@H]([C@]5(C)CC[C@H](C(C)(C)O)O5)CC[C@@]4(C)[C@]3(C)CC[C@H]1C2(C)C`: the viability at 5 µM in test [1] stood at 90.4%; in test [3], 92.8%. Besides, the results for the viability at 10 µM in test [2] and in test [4] were 32.6% and 89%, respectively.
Turning to `CC(C)(O)[C@H]1CC[C@@](C)([C@H]2CC[C@]3(C)[C@@H]2[C@H](O)C[C@@H]2[C@@]4(C)CC[C@H](O)C(C)(C)[C@@H]4CC[C@]23C)O1`, the viability at 10 µM in test [2] was determined as 86.6%.
For `CC(C)(O)[C@@H]1CC[C@@](C)([C@H]2CC[C@]3(C)[C@@H]2[C@H](O)C[C@@H]2[C@@]4(C)Cc5sc(N)nc5C(C)(C)[C@@H]4CC[C@]23C)O1`, the values for the viability at 5 µM in test [1] and in test [3] were 68.7% and 112%, respectively. Moreover, the viability at 10 µM came to 48.6% in test [2] and 80.6% in test [4].
In the same order, the values of `CC(C)[C@H](N)C(=O)Nc1nc2c(s1)C[C@]1(C)[C@H]3C[C@@H](O)[C@H]4[C@@H]([C@]5(C)CC[C@@H](C(C)(C)O)O5)CC[C@@]4(C)[C@]3(C)CC[C@@]1(O)C2(C)C` are 98.6%, 92.5%, 90.7% and 100%.
In the same order, the values of `CC(C)(O)[C@H]1CC[C@@](C)([C@H]2CC[C@]3(C)[C@@H]2[C@H](O)C[C@@H]2[C@@]4(C)Cc5sc(N)nc5C(C)(C)[C@@H]4CC[C@]23C)O1` are 33.7%, 104%, 18.2% and 73.9%.
In the same order, the values of `CC(C)(O)[C@H]1CC[C@@](C)([C@H]2CC[C@]3(C)[C@@H]2[C@H](O)C[C@@H]2[C@@]4(C)Cc5sc(NC(=O)CCCCCCCCCCN)nc5C(C)(C)[C@@H]4CC[C@]23C)O1` are 17.5%, 43.6%, 11.4% and 12.4%.
Turning to `CC(C)(O)[C@H]1CC[C@@](C)([C@H]2CC[C@]3(C)[C@@H]2[C@H](O)C[C@@H]2[C@@]4(C)Cc5sc(NC(=O)CCCCCN)nc5C(C)(C)[C@@H]4CC[C@]23C)O1`, the viability at 5 µM in test [1] was determined as 21.6%; in test [3], 35.3%. Moreover, the viability at 10 µM in test [2] is 12.5%; in test [4] it was 30.3%.
Take `CC(C)(O)[C@@H]1CC[C@@](C)([C@H]2CC[C@]3(C)[C@@H]2[C@H](O)C[C@@H]2[C@@]4(C)CC[C@H](O)C(C)(C)[C@@H]4CC[C@]23C)O1`: the viability at 10 µM in test [2] was determined as 86.5%.
For the compound `CC(C)(O)[C@H]1CC[C@@](C)([C@H]2CC[C@]3(C)[C@@H]2[C@H](O)C[C@@H]2[C@@]4(C)Cc5sc(NC(=O)CCCCCCCN)nc5C(C)(C)[C@@H]4CC[C@]23C)O1`, the results for the viability at 5 µM in test [1] and in test [3] were 23.6% and 38.3%, respectively. For the same compound, the viability at 10 µM worked out at 15% in test [2] and 23.5% in test [4].
In the case of `C[C@H](N)C(=O)Nc1nc2c(s1)C[C@]1(C)[C@H]3C[C@@H](O)[C@@H]4[C@@H]([C@]5(C)CC[C@@H](C(C)(C)O)O5)CC[C@@]4(C)[C@]3(C)CC[C@H]1C2(C)C`, the viability at 5 µM in test [1] was found to be 77.4%; in test [3], 95.7%. In addition, the viability at 10 µM is 46% in test [2] and 97.4% in test [4].
Consider `CC(C)(O)[C@@H]1CC[C@@](C)([C@H]2CC[C@]3(C)[C@@H]2[C@H](O)C[C@@H]2[C@@]4(C)Cc5sc(NC(=O)CN)nc5C(C)(C)[C@@H]4CC[C@]23C)O1`, for which the figures for the viability at 5 µM in test [1] and in test [3] were 59.4% and 94.6%, respectively. For the same compound, the viability at 10 µM stood at 30.2% in test [2] and 65.4% in test [4].
Regarding `CC(C)(O)[C@H]1CC[C@@](C)([C@H]2CC[C@]3(C)[C@@H]2[C@H](O)C[C@@H]2[C@@]4(C)Cc5sc(NC(=O)CCCN)nc5C(C)(C)[C@@H]4CC[C@]23C)O1`, the viability at 5 µM stood at 19.8% in test [1] and 34.7% in test [3]. The viability at 10 µM in test [2] amounted to 12.6%; in test [4], 14.9%.
